# Data: patent US20100297020A1, “PHOSPHORYLATED AND PHOSPHONATED PYRONE ANALOGS FOR THERAPEUTIC TREATMENT” (Limerick Biopharma, Inc., priority 2008, published 2010)
# “Also recorded” adds a separate entry of the source.
# Columns and labels:
# [1] = tested on: BB19 cells, human BCECs (brain capillary endothelial cells); assay: Tacrolimus uptake assay; assay type: cell-based; details: Endothelial cell, 1 h, 0.1 μM test compound, 1 hour incubation, 3H-tacrolimus 34 nM, read-out: cell associated ^3H-tacrolimus uptake, % of control
# Procedure: (§1) BB19 cells, human BCECs (brain capillary endothelial cells) immortalized with the E6E7 genes of human papilloma virus, were kindly provided from Jacques G. Prudhomme, Department of Biology, University of California, Riverside, U.S.A. The cells were cultured as monolayer culture in Amniomax™-C100 basal medium (catalog number 17001-157) with Amniomax™-C100 supplement (catalog number 12556-049) (Invitrogen, Basel, CH).
# (§2) Cells were seeded onto culture surfaces precoated with 10 μg/cm^2 rat tail collagen type I (BD Bioscience, Allschwil, CH) at a density of approximately 50′000 cells/cm^2 and were cultured in an incubator at 37° C. with 5% CO2, 95% fresh air and saturated humidity. For uptake assays, cells were seeded on precoated 96-well plates. Assays were performed at confluency, after 6 days in culture.
# (§3) BB19 cells were seeded 50′000 cells/cm^2 on 96-well plates (Falcon) and incubated under condition described above for 6 days. Before starting the assay, cells were washed 2 times with pre-warmed Dulbecco's MEM with Glutamax-I (catalog number 61965) (Invitrogen AG, Basel, CH), supplemented with 1% non essential amino acids, 1% sodium pyruvate, 50 μg/ml gentamycin (Invitrogen AG) (DMEM). Cells were then incubated for 15 min at 37° C. and 120 rpm in DMEM with or without the specified concentrations of test compounds under investigation. After this pre-incubation, cells were incubated in DMEM containing [propyl-3H]-dihydro-FK506 (3H-tacrolimus, 1 μCi/ml, 34 nM) and with or without the specified concentrations of test compounds for 1 hour at 37° C. and 120 rpm. During this 1-hour incubation period, influx and efflux of the substrate, ^3H-tacrolimus, occur. After the 1-hour incubation period, assay was terminated by placing the assay plate on ice and washing the cells twice with ice-cold DMEM. Determination of cell associated ^3H-tacrolimus was performed by addition of Insta Gel and scintillation liquid to trypsinized cells followed by analysis on a scintillation counter (Packard TriCarb2000, Can berra Packard S.A.). The results are expressed as: % of control=100×[^3H-tacrolimus conc. with test compound]/[^3H-tacrolimus conc. with vehicle]
# [2] = tested on: male ZDF rats; assay: 4 week study in ZDF rats (compound 2, compound 3); assay type: in vivo
# Source text: Seven week old male ZDF rats are used for the study.
# Experimental Design: This study is a 4 week study Using 32 7-week old male ZDF rats, divided into 4 treatment arms (8 rats/arm).
# [3] = tested on: male C57BL/6 mice; assay: Plasma and liver triglyceride in C57BL/6 mice; assay type: in vivo
# Procedure: Experimental Design: This study is a 2-week study conducted with male C57BL/6 mice (24 animals, 3 treatment arms, 8 rats/arm) 9-week old at the start of compound treatment. The animals are maintained (starting at 8-week old) on a 12-hr light and 12-hr dark cycle, and provided with commercial rodent chow Purina 5001 and water ad libitum.
# The stock solution of vehicle (HCO-60) is composed of 200 mg of HCO-60 per mL of 80% alcohol. Vehicle is prepared by diluting the HCO-60 stock solution 1:10 with saline. Compound 3 stock solutions are prepared in HCO-60 stock solution and diluted with saline or vehicle to the appropriate dose concentration.
# Tail-vein-blood samples are collected from each rat 24 hour after the last treatment (day-14) for plasma triglyceride determination. Animals are sacrificed to obtain liver for triglyceride determination.
# [4] = tested on: male db/db mice; assay: 4-week study in db/db mice; assay type: in vivo
# Source text: The animals are maintained (starting at 7-week old) on a 12-hr light and 12-hr dark cycle, and provided with commercial rodent chow, LabDiet® 5K52, and water ad libitum.
# [5] = tested on: ZDF rats; assay: Oral glucose tolerance test (OGTT) in ZDF rats after the 4 week study; assay type: in vivo; details: glucose 2 g/Kg PO
# Procedure: Following the 4 week study described in Example 26 above, the animals were fasted for 12 hours and on day-29, pre-drug blood samples are collected and glucose level and insulin level are measured. The animals are treated intraperitoneally (i.p.) with the following compounds:
# Thirty (30) minutes after the treatment, pre-glucose blood samples are collected and the animals are then dosed with glucose (2 g/Kg, PO). Tail vein blood samples are collected at 30, 60, 90 and 120 minutes. Glucose levela and insulin leveal are measured. FIG. 31 show the plasma glucose level measured during OGTT. […] FIG. 32 show the plasma insulin level measured during OGTT. Phosphonated pyrone analogs raise insulin output in response to OGTT.
# [6] = tested on: ZDF rats; assay: Pancreas histopathology, insulin staining and TUNEL in ZDF rats; assay type: in vivo; details: following four weeks of daily treatment
# Source text: Pancreas samples from Example 26 are stored in 10% NBF and used in this study. All tissue samples were processed through graded alcohols, cleared in xylene and infiltrated and embedded into paraffin. For the pancreas four 4 micron sections were cut, one was stained with Hematoxylin and Eosin for histopathology, two were immunohistochemically stained with an antibody to insulin to determine beta cell mass and one was stained for apoptosis with the tunel technique.
# The insulin staining procedure was performed as follows: Endogenous peroxidase activity was inhibited by incubation in 3% hydrogen peroxide. Non-specific staining was blocked with DAKO Protein Block Serum-Free (Dako, Carpinteria, Calif.). Insulin positive cells were immunohistochemically stained with a polyclonal guinea pig anti-swine insulin antibody at room temperature for 30 minutes (Dako, Carpinteria, Calif.). After incubation with primary antibody, the tissue sections were sequentially incubated with Envision+ HRP Rabbit (Dako, Carpinteria, Calif.). Staining was developed with Liquid DAB+ (Dako, Carpinteria, Calif.) and counterstained with hematoxylin.
# Pancreas samples were stained for apoptosis as follows: 4 micron sections were cut and stained for TUNEL utilizing the following kit In Situ Cell Death Detection Kit, AP (Roche Applied Science, catalog 11 684 809 910).
# [7] = tested on: diet-induced obese mice (C57Bl/6, 60% high fat diet); assay: Diet induced obese mice: IP-GTT and hyperinsulinemic euglycemic clamp; assay type: in vivo; details: 10 mg/kg I.P. daily
# Procedure: Twenty-three (23) week old C57Bl/6 mice are placed on 60% high fat diet (HFD). After 9 weeks of HFD, mice are injected daily with either vehicle (PBS/NaCO3) or fisetin-3-O-methylphosphonate (compound 3) at a dosage of 10 mg/kg delivered via I.P. injection. HFD is continued throughout the injection period. After 2 weeks (week 10 and 11) of injection, mice are tested for basal blood (non-fasted) glucose levels by tail blood withdrawal. After 3 weeks (week 12) of injection, IP glucose tolerance test (IP-GTT) is performed at a dose of 1 gm dextrose per kilogram body weight. After 4 weeks (week 13) of injection, cannulation surgery is performed on anesthetized mice. Mice are allowed to recover 6 days. After 6 days, hyperinsulinemic euglycemic clamp studies are performed on the mice. After 7 weeks (week 16) of injections, a second IP-GTT is performed on the mice. Three days after the second IP-GTT, mice are sacrificed and blood and tissue samples are collected for further analysis.
# [8] = tested on: BB19 cells, human BCECs (brain capillary endothelial cells); assay: Cyclosporin uptake assay; assay type: cell-based; details: 0.1 μM test compound; 1 hour incubation
# Procedure: as §1, §2, §3
# The cyclosporin uptake assay was performed similarly as described above for tacrolimus uptake assay except that ^3H-cyclosporin was used in place of ^3H-tacrolimus.
# [9] = is known to be; cited from earlier work
structure (smiles),measurement,setting,value
"O=c1c(OCP(=O)(O)O)c(-c2ccc(O)c(O)c2)oc2cc(O)ccc12 [Compound 3, Fisetin-3-O-methylphosphonic acid]",activity at 0.1 µM,[1],44%
same,plasma insulin levels,"[2]; 4 weeks daily i.p., compared to vehicle treated animals",require lower insulin levels to maintain nomal glucose levels
same,plasma glucose levels,"[2]; 4 weeks daily i.p., compound 2 100 mg/kg, compound 3 100 mg/kg day 4 and 5, 50 mg/kg day 6-28, rosiglitazone 6 mg/kg",maintains steady glucose levels
same,glycated hemoglobin levels (% HbA1c) at termination,[2]; compared to vehicle treated animals,lower glycated hemoglobin levels
same,triglycerides,"[2]; day 14 and day 21, over vehicle controls",marked decreases in triglycerides
same,liver triglyceride,"[3]; 30 mg/kg daily i.p. for 13 days, compared to vehicle",significantly reduces liver triglyceride
same,plasma triglyceride,"[3]; daily i.p. for 13 days, 30 and 3 mg/kg",reduces plasma triglyceride
same,body weights,[4]; 4 weeks of daily treatment,essentially identical that of vehicle treated animals
same,liver triglyceride at sacrifice (day-29),[4]; compound 3 10 mg/kg daily i.p.,significantly lower than vehicle treated mice
same,plasma cholesterol levels on Day-28,[4]; compound 3 10 mg/kg daily i.p.,significantly lower than vehicle or rosiglitazone treated mice
same,plasma triglyceride levels on Day-28,[4]; compound 3 10 mg/kg daily i.p.,significantly lower than vehicle or rosiglitazone treated mice
same,plasma glucose level on Day-28,"[4]; daily i.p., compound 3 30 and 10 mg/kg, rosiglitazone 10 mg/kg",lower than vehicle treated control mice
same,plasma insulin level during OGTT,[5],raises insulin output
same,plasma glucose level during OGTT,"[5]; compound 2 100 mg/kg, compound 3 50 mg/kg i.p.",protect against hyperglycemia
same,islet cell apoptosis,[6]; TUNEL,decreases in islet cell apoptosis
same,decrease in islet vacuolar degeneration (inhibition),[6],43%
same,decrease in pancreatic inflammation (inhibition),[6],35%
same,basal glucose,[7],reduces basal glucose
same,hepatic glucose output,[7],impacts hepatic glucose output; also recorded: reduces hepatic glucose output
same,insulin output in response to glucose challenge,[7],less insulin output is required
same,tissue glucose uptake during hyperinsulinemic euglycemic clamp,[7],enhances tissue glucose uptake
same,response to IP glucose challenge,[7]; IP-GTT 1 gm dextrose per kilogram,improves response to glucose challenge
same,"cell associated ^3H-cyclosporin uptake, % of control",[8],71 % of control
"O=c1c(O)c(-c2ccc(O)c(O)c2)oc2cc(O)cc(O)c12 [quercetin aglycone, quercetin]",serum half-life,[9],19 to 25 h
